Where a SMILES comes first, the peptide text is derived from it. Bridges are numbered along the chain shown (N, C = ends).
What was measured:
[1] = target: NaV1.8 (Homo sapiens, UniProt Q9Y5Y9); assay: I-V protocol, whole-cell patch-clamp, NaV1.8; format: cell-based; conditions: Eo1a 10 μM
Procedure: (§1) Human Embryonic Kidney (HEK) 293 cells stably expressing human NaV1.1 to NaV1.7/β1 (SB Drug Discovery, Glasgow, United Kingdom), Chinese Hamster Ovary (CHO) cells stably expressing human NaV1.8/β3 in a tetracycline-inducible system (ChanTest, Cleveland, OH, United States), and HEK293 cells stably expressing rat transient receptor potential vanilloid 1 (TRPV1) were cultured as previously described ([Yin et al., 2020]). Human KV2.1 and NaV1.7 mutants were transiently transfected into HEK293 cells stably expressing β1/β2 using Lipofectamine 2000 (Thermo Fisher Scientific, Scoresby, VIC, Australia) and used for patch-clamp experiments 48 h after transfection. Cells were grown in an incubator at 37°C with 5% CO2 and passaged every 3–4 d (at 70–80% confluency) using TrypLE Express (Thermo Fisher Scientific).
(§2) Automated whole-cell patch-clamp recordings were performed with a QPatch-16 automated electrophysiology platform (Sophion Bioscience, Ballerup, Denmark) using single-hole (QPlate 16 with a standard resistance of 2 ± 0.4 MΩ) or multi-hole (QPlate 16X with a standard resistance 0.2 ± 0.04 MΩ, NaV1.8 only) as previously described ([McMahon et al., 2020]).
(§3) The extracellular solution (ECS) consisted of (in mM) 145 NaCl (replaced with 70 choline chloride for NaV1.4, NaV1.5 and NaV1.7), 4 KCl, 2 CaCl2, 1 MgCl2, 10 HEPES, and 10 glucose, pH to 7.4 with NaOH (adjusted to 305 mOsm/L with sucrose). For NaV recordings the intracellular solution (ICS) consisted of (in mM) 140 CsF, 1 EGTA, 5 CsOH, 10 HEPES, and 10 NaCl, pH to 7.3 with CsOH (adjusted to 320 mOsm/L with sucrose). For KV2.1 recordings the ICS consisted of (in mM) 50 KCl, 60 KF, 10 EGTA, 10 HEPES, 10 NaCl pH to 7.3 with KOH (adjusted to 320 mOsm/L with sucrose). TTX (1 μM) was added to the ECS for NaV1.8 recordings to inhibit background endogenous TTX sensitive current in CHO cells.
(§4) I-V curves were obtained with a holding potential of −90 mV followed by a series of 500 ms step pulses that ranged from −110 to +80 mV in 5-mV increments (repetition interval 5 s) before and after 5 min incubation with Eo1a (10 μM). Conductance-voltage (G-V) curves were obtained by calculating the conductance (G) at each voltage (V) using equation G = I/(V − V rev ), where V rev is the reversal potential. G-V curves were fitted with a Boltzmann equation. The voltage dependence of steady-state fast inactivation was examined using a 10-ms pulse of −20 mV (+10 mV for NaV1.8) immediately after the 500-ms step above to assess the available non-inactivated channels.
(§5) The time constant of fast inactivation (τ) was computed by fitting the current decay traces with a single exponential function using QPatch Assay Software 5.6 (Sophion). The time to peak was calculated from pulse onset to peak inward current using QPatch Assay Software 5.6 (Sophion).

[2] = tested on: NaV1.5; assay: I-V protocol, whole-cell patch-clamp, NaV1.5; format: cell-based, human; conditions: Eo1a 10 μM
Procedure: as §1, §2, §3
as §4, with “The voltage dependence of steady-state fast inactivation was examined using a 10-ms pulse of −20 mV (+10 mV for NaV1.8) immediately after the 500-ms step above to assess the available non-inactivated channels.” left out
as §5

[3] = tested on: NaV1.7 with DII S3-S4 loop of NaV1.8; assay: Voltage-dependence of activation, NaV1.7/NaV1.8 chimera DII S3-S4; format: cell-based, human; conditions: Eo1a 10 μM; NaV1.7 with NaV1.8 DII S3-S4; HEK293 β1/β2, transient; mean ± SEM, n = 3–6 cells
Procedure: as §1
Wild-type (WT) hNaV1.7 cDNA (NM_002,977, a gift from Dr James Cox, University College London) was subjected to in vitro site-directed mutagenesis using the QuikChange™ XL mutagenesis kit (Agilent Technologies) following the manufacturer’s instructions. NaV1.7 mutants were generated by substituting the domain II (DII) S1-S2 loop, the DII S3-S4 loop, the domain IV (DIV) S1-S2 loop and the DIV S3-S4 loop in NaV1.7 with the corresponding regions of NaV1.8. The mutations were verified by sequencing at the Brisbane node of the Australian Genome Research Facility. […]

[4] = tested on: WT mice; assay: Spontaneous pain after intraplantar injection, WT littermate mice; format: in vivo, mouse; conditions: Eo1a intraplantar, mean ± SEM, n = 3–4 mice
Excerpt: Adult male C57BL/6J mice aged 4–8 weeks were sourced from the Animal Resource Centre (Canning Vale, Western Australia). Adult male NaV1.8 knockouts ([Nassar et al., 2004]) (aged 8–11 weeks) and wild-type littermates were housed and tested at University College London. Animals were housed in groups of three or four per cage under 12-h light-dark cycles and were provided with standard rodent chow and water ad libitum. Ethical approval for experiments involving animals was obtained from The University of Queensland animal ethics committee (TRI/IMB/093/17, IMB/PACE/421/18) and the United Kingdom Home Office (project licence PPL 70/7382). All experiments were conducted in accordance with the International Association for the Study of Pain Guidelines for the Use of Animals in Research and the Australian Code of Practice for the Care and Use of Animals for Scientific Purposes, 8th edition (2013).
Eo1a (1 μM or 10 μM) was diluted in saline/0.1% BSA and administered by intraplantar injection to the left hind paw of mice in a volume of 40 μl under isoflurane (3%) anaesthesia, and spontaneous pain behaviours (licks, bites, shakes, and lifts of the hind paw) were counted by a blinded investigator for up to 40 min after the injection.

[5] = tested on: NaV1.7; assay: I-V protocol, whole-cell patch-clamp, NaV1.7; format: cell-based, human; conditions: Eo1a 10 μM
Procedure: as §1, §2, §3
as §4, with “The voltage dependence of steady-state fast inactivation was examined using a 10-ms pulse of −20 mV (+10 mV for NaV1.8) immediately after the 500-ms step above to assess the available non-inactivated channels.” left out
as §5

NaV1.8, sequence (Q9Y5Y9 whole entry): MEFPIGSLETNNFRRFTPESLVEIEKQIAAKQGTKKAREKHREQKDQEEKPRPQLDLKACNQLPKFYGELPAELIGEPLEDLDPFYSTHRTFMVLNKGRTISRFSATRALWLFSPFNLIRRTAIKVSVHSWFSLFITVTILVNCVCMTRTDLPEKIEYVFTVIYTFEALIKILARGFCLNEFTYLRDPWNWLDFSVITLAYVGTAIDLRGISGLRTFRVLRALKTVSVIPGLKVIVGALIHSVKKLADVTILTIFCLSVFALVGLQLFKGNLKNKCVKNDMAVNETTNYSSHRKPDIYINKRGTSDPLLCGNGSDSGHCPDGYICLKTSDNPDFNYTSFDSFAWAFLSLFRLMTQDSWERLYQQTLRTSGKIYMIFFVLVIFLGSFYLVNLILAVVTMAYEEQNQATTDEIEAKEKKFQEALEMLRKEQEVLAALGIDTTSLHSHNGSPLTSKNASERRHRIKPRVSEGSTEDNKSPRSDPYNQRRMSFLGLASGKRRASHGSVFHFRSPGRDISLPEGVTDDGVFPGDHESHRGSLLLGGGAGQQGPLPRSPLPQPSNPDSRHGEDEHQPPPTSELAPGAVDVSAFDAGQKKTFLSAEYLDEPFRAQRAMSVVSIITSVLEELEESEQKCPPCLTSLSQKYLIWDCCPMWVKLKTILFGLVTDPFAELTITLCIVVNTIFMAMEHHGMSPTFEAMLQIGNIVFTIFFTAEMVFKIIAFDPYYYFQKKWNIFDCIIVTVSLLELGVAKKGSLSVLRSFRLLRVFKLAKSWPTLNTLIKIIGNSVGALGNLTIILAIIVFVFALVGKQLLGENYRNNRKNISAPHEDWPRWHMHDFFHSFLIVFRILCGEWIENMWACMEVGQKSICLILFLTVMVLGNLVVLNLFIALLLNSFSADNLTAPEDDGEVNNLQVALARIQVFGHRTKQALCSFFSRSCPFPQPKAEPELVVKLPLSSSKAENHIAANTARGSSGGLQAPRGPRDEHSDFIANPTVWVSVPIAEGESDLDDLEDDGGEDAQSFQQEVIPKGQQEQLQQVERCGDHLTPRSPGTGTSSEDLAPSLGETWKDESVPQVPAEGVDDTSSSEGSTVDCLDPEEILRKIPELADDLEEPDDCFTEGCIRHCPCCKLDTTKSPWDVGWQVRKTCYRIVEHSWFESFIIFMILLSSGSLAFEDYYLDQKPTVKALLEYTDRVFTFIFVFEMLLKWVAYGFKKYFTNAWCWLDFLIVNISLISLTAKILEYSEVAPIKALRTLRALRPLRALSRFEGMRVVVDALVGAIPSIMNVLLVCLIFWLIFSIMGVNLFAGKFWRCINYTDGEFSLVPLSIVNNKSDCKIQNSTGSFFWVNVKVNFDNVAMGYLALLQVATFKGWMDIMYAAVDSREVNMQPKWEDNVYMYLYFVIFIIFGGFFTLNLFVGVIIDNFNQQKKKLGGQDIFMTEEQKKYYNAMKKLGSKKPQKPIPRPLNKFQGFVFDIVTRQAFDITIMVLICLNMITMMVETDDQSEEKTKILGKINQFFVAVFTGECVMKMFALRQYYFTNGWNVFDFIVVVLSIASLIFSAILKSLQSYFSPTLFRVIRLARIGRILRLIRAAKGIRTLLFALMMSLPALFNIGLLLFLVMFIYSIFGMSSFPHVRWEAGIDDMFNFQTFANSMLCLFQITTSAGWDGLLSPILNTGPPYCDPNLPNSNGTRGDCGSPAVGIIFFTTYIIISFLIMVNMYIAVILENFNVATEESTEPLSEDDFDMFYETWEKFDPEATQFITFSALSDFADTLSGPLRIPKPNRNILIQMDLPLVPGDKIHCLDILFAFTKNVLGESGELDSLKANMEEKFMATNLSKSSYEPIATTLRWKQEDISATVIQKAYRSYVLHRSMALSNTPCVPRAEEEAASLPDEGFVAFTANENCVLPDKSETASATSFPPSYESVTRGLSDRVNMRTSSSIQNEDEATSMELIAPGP

Structure (SMILES): CC[C@H](C)[C@@H]1NC(=O)[C@H](CCCNC(=N)N)NC(=O)[C@@H]2CSSC[C@@H]3NC(=O)CNC(=O)CNC(=O)[C@H](CC(C)C)NC(=O)[C@H](Cc4ccccc4)NC(=O)[C@H](Cc4c[nH]c5ccccc45)NC(=O)[C@H](CCCNC(=N)N)NC(=O)[C@@H](NC(=O)[C@@H](N)CC(=O)O)CSSC[C@H](NC(=O)[C@H](CSSC[C@@H](C(=O)N[C@@H](C)C(=O)N[C@@H](Cc4c[nH]c5ccccc45)C(=O)N[C@@H](CC(=O)O)C(=O)NCC(=O)N[C@H](C(=O)N[C@@H](Cc4ccccc4)C(N)=O)[C@@H](C)O)NC(=O)[C@H](Cc4ccc(O)cc4)NC(=O)[C@H](CCCCN)NC(=O)[C@H]([C@@H](C)CC)NC(=O)[C@H](Cc4ccc(O)cc4)NC(=O)CNC(=O)[C@H](CC(=O)O)NC1=O)NC(=O)[C@H](CC(=O)O)NC(=O)[C@H](CO)NC(=O)[C@H](CC(=O)O)NC(=O)[C@H](CCCCN)NC(=O)[C@H](CO)NC3=O)C(=O)N[C@@H](CCCCN)C(=O)N[C@@H](Cc1c[nH]cn1)C(=O)N[C@@H](CC(C)C)C(=O)N[C@@H](C)C(=O)N2 [Eo1a] (H-DCRWFLGGCSKDSDCCKHLACRIDGYIKYCAWDGTF-NH2; disulfide 2-16, 9-21, 15-30 (inferred); N-terminus assumed)
- ΔV50 voltage-dependence of steady-state fast inactivation ([1]; 5 min, CHO cells, hNaV1.8/β3, 10-ms pulse to +10 mV after 500-ms step, hyperpolarising shift, mean ± SEM, n = 4 cells): –15.5 ± 1.8 mV
- ΔV50 voltage-dependence of activation ([1]; 5 min, CHO cells, hNaV1.8/β3, Boltzmann fit, hyperpolarising shift vs before addition, mean ± SEM, n = 4 cells): –20.5 ± 1.2 mV
- peak current I/I0 ([1]; 5 min, peak from I-V protocol at any voltage, normalised to buffer control, CHO hNaV1.8/β3, mean ± SEM, n = 4–6 cells): 1.8 ± 0.08
- window current ([1]; NaV1.8, n = 4 cells): comparatively unchanged
- activation kinetics (time to peak) ([1]; NaV1.8, potentials between −5 mV and +45 mV, n = 4 cells, two-way ANOVA): without significantly altering
- fast inactivation kinetics (time constant) ([1]; NaV1.8, single exponential fit, −5 mV to +45 mV, n = 4 cells, two-way ANOVA): without significantly altering
- V1/2 activation ([1]; NaV1.8, 5 min, control +7.0 ± 1.8 mV, *p < 0.05, mean ± SEM, n = 4–6): −13.5 mV
- V1/2 inactivation (steady-state fast inactivation) ([1]; NaV1.8, 5 min, control −27.4 ± 2.7 mV, *p < 0.05, mean ± SEM, n = 4–6): −42.9 ± 2.1*
- peak current I/I0 ([2]; 5 min, peak from I-V protocol at any voltage, normalised to buffer control, HEK293 hNaV1.5/β1, mean ± SEM, n = 4–6 cells): 0.41 ± 0.05
- V1/2 activation ([2]; NaV1.5, 5 min, control −30.3 ± 4.0 mV, mean ± SEM, n = 4–6): −27.1 ± 2.2 mV
- V1/2 inactivation (steady-state fast inactivation) ([2]; NaV1.5, 5 min, control −70.2 ± 0.9 mV, mean ± SEM, n = 4–6): −75.5 ± 1.0
- effect on inactivation kinetics ([2]; NaV1.5, test pulse −20 mV): minimal effect
- ΔV1/2 activation [3]: −20.4 ± 1.4 mV
- spontaneous pain (flinches) [4]: 392 ± 45 Flinches/15 min
- peak current I/I0 ([5]; 5 min, peak from I-V protocol at any voltage, normalised to buffer control, HEK293 hNaV1.7/β1, mean ± SEM, n = 4–6 cells): 0.63 ± 0.10
- V1/2 activation ([5]; NaV1.7, 5 min, control −26.1 ± 1.5 mV, mean ± SEM, n = 4–6): −32.9 ± 2.9 mV
- V1/2 inactivation (steady-state fast inactivation) ([5]; NaV1.7, 5 min, control −65.5 ± 1.4 mV, mean ± SEM, n = 4–6): −69.1 ± 4.3
- effect on fast inactivation ([5]; NaV1.7, test pulse −20 mV): delayed fast-inactivation
